Here are results for 18 molecules from patent publication US9062032B2, “Aminoalkyl-substituted N-thienylbenzamide derivative” (ASTELLAS PHARMA INC., priority 2011, dated 2015).

Where a name gives a salt, the structure may show the parent alone.

One experiment addresses T1, rat NPT-IIb (Rattus norvegicus, UniProt Q9JJ09).
T1 construct: rat NPT-IIb ORF was cloned into p3×FLAG-CMV-10 by PCR; expressed in transfected cells
T1 sequence (Q9JJ09 1-695): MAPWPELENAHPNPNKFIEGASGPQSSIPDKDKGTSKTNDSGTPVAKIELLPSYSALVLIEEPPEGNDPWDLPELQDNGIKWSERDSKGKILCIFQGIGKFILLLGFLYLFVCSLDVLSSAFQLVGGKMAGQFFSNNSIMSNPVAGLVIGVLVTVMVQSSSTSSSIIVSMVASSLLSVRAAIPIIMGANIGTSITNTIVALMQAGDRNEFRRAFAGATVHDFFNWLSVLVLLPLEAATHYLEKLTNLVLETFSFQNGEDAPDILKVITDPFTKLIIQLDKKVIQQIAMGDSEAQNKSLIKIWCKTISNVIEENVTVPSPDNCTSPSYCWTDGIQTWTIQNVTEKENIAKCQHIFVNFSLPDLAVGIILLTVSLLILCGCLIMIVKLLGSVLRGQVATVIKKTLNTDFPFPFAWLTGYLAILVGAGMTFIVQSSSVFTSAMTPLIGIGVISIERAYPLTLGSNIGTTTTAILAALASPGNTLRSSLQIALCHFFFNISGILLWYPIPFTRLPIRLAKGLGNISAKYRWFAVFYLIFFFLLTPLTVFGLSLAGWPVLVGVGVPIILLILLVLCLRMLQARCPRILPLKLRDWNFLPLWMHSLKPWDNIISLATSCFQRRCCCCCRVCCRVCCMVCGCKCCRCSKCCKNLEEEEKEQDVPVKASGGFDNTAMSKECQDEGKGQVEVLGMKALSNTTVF
Briefly: Inhibitory action against 33P-phosphate uptake into rat NPT-IIb expression cell. In kind it is cell-based. As to conditions: HEK293; compound concentration 1 μM; rat NPT-IIb stable expression 293 cells; read-out: Int. 1 (%): inhibition rate of the 33P-phosphate uptake into the rat NPT-IIb. An excerpt: Inhibitory Action Against ^33P-Phosphate Uptake into Rat NPT-IIb Expression Cell
(1) Preparation of Rat NPT-IIb Expression Cell
A rat small intestine cDNA library was used as a template, and rat NPT-IIb ORF was cloned into p3×FLAG-CMV-10 by PCR according to the prescribed method. Thereafter, 293 cells were transfected with the cloned rat NPT-IIb expression plasmid, thereby obtaining a rat NPT-IIb stable expression cell line by using G418.
(2) Evaluation System for Inhibition of Phosphate Uptake into Rat NPT-IIb Expression Cell
The rat NPT-IIb expression cells were seeded to a 96-well plate, followed by incubation overnight. Thereafter, the culture medium was removed, the plate was washed with buffer A (137 mM N-methyl-D-glucamine, 5.4 mM KCl, 2.8 mM CaCl2, 1.2 mM MgCl2, and 10 mM HEPES (adjusted to pH 7.4 using HCl)), and then buffer B (137 mM NaCl, 5.4 mM KCl, 2.8 mM CaCl2, 1.2 mM MgCl2, 0.1 mM KH2PO4, and 10 mM HEPES (adjusted to pH 7.4 using KOH)) was added thereto. Subsequently, a compound with a concentration of 10 times the evaluation concentration was prepared by dilution with the buffer B and added thereto. After the resultant was incubated in a CO2 incubator, the buffer B supplemented 50 μCi/mL of ^33P was added thereto, and then the resultant was incubated again in a CO2 incubator. After the reaction, the buffer was removed, the plate was washed with buffer C (137 mM NaCl, 10 mM Tris/HCl, pH 7.2). Thereafter, MicroScint-20 was added thereto, and ^33P uptake was measured using TopCount. An inhibition rate was calculated by the following formula. Inhibition rate (%)=(1−(^33P uptake of well treated with chemical)/(^33P uptake of DMSO-added well))×100
Table 1 illustrates examples of the inhibition rate (Int. 1) of the ^33P-phosphate uptake into the rat NPT-IIb in some of the compounds of the present invention at a concentration of drug efficacy evaluation of 1 μM. Here, Ex represents the number of example compounds described later (the same shall apply hereinafter).

For experiment [1], the system named is phosphate absorption from the intestinal tract. Briefly: Action of inhibiting increase in blood radioactivity in rat orally loaded with 32P phosphate (phosphate absorption inhibitory action). In kind it is in vivo. As to conditions: male Wistar rats, 3 mg/kg oral, 32P phosphate load 5 min after dosing, serum radioactivity AUC0-30 min. On the procedure: Action of Inhibiting Increase in Blood Radioactivity in Rat Orally Loaded with ^32P Phosphate (Phosphate Absorption Inhibitory Action)
Male Wistar rats (6- to 7-week old) were fasted for 24 hours and then used as experimental animals. The compound was suspended or dissolved with a solvent, and was used at a concentration of 0.6 mg/mL. The compound was forcibly orally administered at a dose of 3 mg/kg to the animals of a compound-administered group. Control-group animals were administered a solvent containing no compound at a dose of 5 mL/kg. After 5 minutes from administration of the compound or the solvent, a ^32P-containing phosphate solution (8.3 mM NaH2PO4) was orally administered thereto at a dose of 7.2 mL/kg. After 15 minutes and 30 minutes, the blood was taken from the orbital venous plexus and the serum was collected. Radioactivity in 0.1 mL of the serum was measured by a liquid scintillation counter. AUC0-30 min in calculated from the measured counts was considered as a phosphate absorption amount. The phosphate absorption inhibitory rate was determined from the AUC0-30 min value according to the following formula. Inhibition rate of phosphate absorption (%)=(1−phosphate absorption count of compound-administered group/phosphate absorption count of standard group)×100
Table 2 illustrates examples of the inhibition rate (Int. 2) of phosphate absorption in regard to some of the compounds of Formula (I).

With `CCC(CC)N(CCN(C)C(=O)CCC(=O)O)Cc1cccc(C(=O)Nc2sc3c(c2C(=O)Nc2ccc(CCc4ccc(C(=O)O)cc4)cc2)CCCC3)c1.Cl` [Example 2, 4-(2-{4-[({2-[(3-{[{2-[(3-carboxypropanoyl)(methyl)amino]ethyl}(pentan-3-yl)amino]methyl}benzoyl)amino]-4,5,6,7-tetrahydro-1-benzothiophen-3-yl}carbonyl)amino]phenyl}ethyl)benzoic acid hydrochloride], the inhibition at 1 µM at rat NPT-IIb was 87%. The “Int. 2 (%): inhibition rate of phosphate absorption” value (from here on “Int. 2 (%): inhibition rate”) in experiment [1] was greater than 60%.

For `CCC(CC)N(CCN(C)C(=O)OCC(=O)O)Cc1cccc(C(=O)Nc2sc3c(c2C(=O)Nc2ccc(CCc4ccc(C(=O)O)cc4)cc2)CCCC3)c1.Cl` [Example 4, 4-(2-{4-[({2-[(3-{[(2-{[(carboxymethoxy)carbonyl](methyl)amino}ethyl)(pentan-3-yl)amino]methyl}benzoyl)amino]-4,5,6,7-tetrahydro-1-benzothiophen-3-yl}carbonyl)amino]phenyl}ethyl)benzoic acid hydrochloride], the inhibition at 1 µM on rat NPT-IIb came to 77%. Moreover, the “Int. 2 (%): inhibition rate” value in experiment [1] stood at 53%.

With `CCN(CCN(Cc1cccc(C(=O)Nc2sc3c(c2C(=O)Nc2ccc(CCc4ccc(C(=O)O)cc4)cc2)CCCC3)c1)C1CC1)C(=O)CCC(=O)O` [Example 31], at rat NPT-IIb, the inhibition at 1 µM is 87%.

In the case of `CN(CCN(Cc1cccc(C(=O)Nc2sc3c(c2C(=O)Nc2ccc(CCc4ccc(C(=O)O)cc4)cc2)CCCC3)c1)C1CC1)C(=O)CCC(=O)O` [Example 37], on rat NPT-IIb, the inhibition at 1 µM amounted to 77%.

Turning to `CC(C)N(CCN(C)C(=O)CCC(=O)O)Cc1cccc(C(=O)Nc2sc3c(c2C(=O)Nc2ccc(CCc4ccc(C(=O)O)cc4)cc2)CCCC3)c1` [Example 38], the inhibition at 1 µM at rat NPT-IIb was determined as 61%.

`CCC(CC)N(CCN(C)C(=O)CCC(=O)O)Cc1cccc(C(=O)Nc2sc(C3CCCCC3)cc2C(=O)Nc2ccc(CCc3ccc(C(=O)O)cc3)cc2)c1` [Example 41]: the inhibition at 1 µM on rat NPT-IIb is 73%.

As for `CCC(CC)N(CCN(C)C(=O)CCC(=O)O)Cc1cccc(C(=O)Nc2sc3c(c2C(=O)Nc2ccc(CCc4ccc(C(=O)O)cc4)cc2)CCCCCC3)c1` [Example 43], the inhibition at 1 µM on rat NPT-IIb stood at 65%.

As to `CCC(CC)N(CCN(C)C(=O)CCC(=O)O)Cc1cccc(C(=O)Nc2sc3c(c2C(=O)Nc2ccc(CCCc4ccc(C(=O)O)cc4)cc2)CCCC3)c1` [Example 53], on rat NPT-IIb, the inhibition at 1 µM amounted to 85%.

As to `CCC(CC)N(CCN(CCOC)C(=O)CCC(=O)O)Cc1cccc(C(=O)Nc2sc3c(c2C(=O)Nc2ccc(CCc4ccc(C(=O)O)cc4)cc2)CCCC3)c1.Cl` [Example 60], the inhibition at 1 µM at rat NPT-IIb was 86%. Besides, the “Int. 2 (%): inhibition rate” value in experiment [1] was found to be 56%.

As for `CCC(CC)N(CCCN(C)C(=O)CCC(=O)O)Cc1cccc(C(=O)Nc2sc3c(c2C(=O)Nc2ccc(CCc4ccc(C(=O)O)cc4)cc2)CCCC3)c1.Cl` [Example 66], the inhibition at 1 µM on rat NPT-IIb worked out at 76%. Besides, the “Int. 2 (%): inhibition rate” value in experiment [1] is 59%.

`CCC(CC)N(CCN(C)C(=O)CCC(C)(C)C(=O)O)Cc1cccc(C(=O)Nc2sc3c(c2C(=O)Nc2ccc(CCc4ccc(C(=O)O)cc4)cc2)CCCC3)c1` [Example 67, 4-(2-{4-[({2-[(3-{[{2-[(4-carboxy-4-methylpentanoyl)(methyl)amino]ethyl}(pentan-3-yl)amino]methyl}benzoyl)amino]-4,5,6,7-tetrahydro-1-benzothiophen-3-yl}carbonyl)amino]phenyl}ethyl)benzoic acid hydrochloride]: the inhibition at 1 µM at rat NPT-IIb came to 89%.

Consider `CC(C)[C@@H](C)N(CCN(C)C(=O)CCC(=O)O)Cc1cccc(C(=O)Nc2sc3c(c2C(=O)Nc2ccc(CCc4ccc(C(=O)O)cc4)cc2)CCCC3)c1` [Example 70], for which, at rat NPT-IIb, the inhibition at 1 µM came out at 60%.

Turning to `CCC(CC)N(CCc1cccc(C(=O)Nc2sc3c(c2C(=O)Nc2ccc(CCc4ccc(C(=O)O)cc4)cc2)CCCC3)c1)CCN(C)C(=O)CCC(=O)O` [Example 79], the inhibition at 1 µM at rat NPT-IIb turned out to be 75%.

With `CCC(CC)N(CCN(C)C(=O)CCC(=O)O)Cc1cccc(C(=O)Nc2sc3c(c2C(=O)Nc2ccc(CCc4ccc(C(=O)O)cc4)nc2)CCCC3)c1` [Example 96], on rat NPT-IIb, the inhibition at 1 µM turned out to be 70%.

For the molecule `CCC(CC)N(CCN(C)C(=O)CCC(=O)O)Cc1cc(C(=O)Nc2sc3c(c2C(=O)Nc2ccc(CCc4ccc(C(=O)O)cc4)cc2)CCCC3)ccn1` [Example 99], the inhibition at 1 µM on rat NPT-IIb is 71%.

With `CCC(CC)N(Cc1cccc(C(=O)Nc2sc3c(c2C(=O)Nc2ccc(CCc4ccc(C(=O)O)cc4)cc2)CCCC3)c1)C(=O)CCC(C)(C)C(=O)O` [Example 109, 4-(2-{4-[({2-[(3-{[(4-carboxy-4-methylpentanoyl)(pentan-3-yl)amino]methyl}benzoyl)amino]-4,5,6,7-tetrahydro-1-benzothiophen-3-yl}carbonyl)amino]phenyl}ethyl)benzoic acid], the inhibition at 1 µM on rat NPT-IIb is 86%.

As for `CCC(CC)N(Cc1cccc(C(=O)Nc2sc3c(c2C(=O)Nc2ccc(CCc4ccc(C(=O)O)cc4)cc2)CCCC3)c1)C(=O)CC(C)(C)CC(=O)O` [Example 121, 4-(2-{4-[({2-[(3-{[(4-carboxy-3,3-dimethylbutanoyl)(pentan-3-yl)amino]methyl}benzoyl)amino]-4,5,6,7-tetrahydro-1-benzothiophen-3-yl}carbonyl)amino]phenyl}ethyl)benzoic acid], at rat NPT-IIb, the inhibition at 1 µM came out at 79%.

Turning to `CC(C)N(Cc1cccc(C(=O)Nc2sc3c(c2C(=O)Nc2ccc(CCc4ccc(C(=O)O)cc4)cc2)CCCC3)c1)[C@H]1CC[C@H](C(=O)O)CC1` [Example 172], on rat NPT-IIb, the inhibition at 1 µM came out at 48%.

By inhibition is commonly meant the drop in the measured response relative to a control, in per cent.
